The results in this text go back to ChEMBL document CHEMBL1144034, “Synthesis and anti-protozoal activity of C2-substituted polyazamacrocycles” (Bioorg Med Chem Lett, 2008).

Structures are written as SMILES.

A word on the EC50: it is the concentration giving half of the maximal effect. In general, logP refers to the decadic logarithm of the partition coefficient of the neutral form, usually between octanol and water. The low end stands for lower lipophilicity, the high end for higher lipophilicity.

Data set [1] relates to Plasmodium falciparum. Briefly: Antiprotozoal activity against Plasmodium falciparum. The class given is functional, organism-based.
A short description of data set [2]: Partition coefficient, log P of the compound. The note with it: octanol/water. The class given is physicochemical.
The test system of data set [3] is Trypanosoma brucei. In words: Antiprotozoal activity against Trypanosoma brucei by Alamar blue assay. It counts as functional, organism-based. In general terms: Alamar Blue is a resazurin reagent that responds to reducing activity.
Data set [4] is described as follows: Cytotoxicity against HEK cells. It counts as cell-based. The note with it: Homo sapiens, HEK293.

`CCN(CC)CCCC(C)Nc1ccnc2cc(Cl)ccc12` (configuration not stated) [CHLOROQUINE]: it took 0.008 µM to reach a half-maximal effect in data set [1] (EC50).
`c1csc(C2CNCCNCCNCCN2)c1` (configuration not stated) yielded a logP in data set [2] of -0.4. Also, the EC50 is 72.3 µM in data set [3], greater than 200 µM in data set [4] and 46.7 µM in data set [1].
Taken in the same sequence, the figures for `COc1ccc(C2CNCCNCCNCCN2)cc1` (configuration not stated) were -0.1, greater than 200 µM, greater than 200 µM and 26 µM.
In data set [2], `Brc1ccc(C2CNCCNCCNCCN2)cc1` (configuration not stated) returned a logP of 0.7. Further, the EC50 in data set [3] was 21.8 µM; in data set [4] it was greater than 200 µM; in data set [1], 5.8 µM.
Consider `O=[N+]([O-])c1ccc(C2CNCCNCCNCCN2)cc1` (configuration not stated), for which the logP in data set [2] was -0.4. Also, the results for the EC50 in data set [3], in data set [4] and in data set [1] were greater than 200 µM, greater than 200 µM and 13 µM, respectively.
In data set [2], `c1ccc2c(c1)Cc1cc(C3CNCCNCCNCCN3)ccc1-2` (configuration not stated) returned a logP of 1.8. Further, the values for the EC50 in data set [3], in data set [4] and in data set [1] were 2.6 µM, 26 µM and 1.3 µM, respectively.
The corresponding values for `c1ccc2cc(C3CNCCNCCNCCN3)ccc2c1` (configuration not stated) are 1, 6.9 µM, greater than 200 µM and 1.7 µM.
The corresponding values for `C1CNCCNCCNCCN1` are -1.8, greater than 200 µM, 5 µM and greater than 100 µM.
Taken in the same sequence, the figures for `FC(F)(F)c1ccc(C2CNCCNCCNCCN2)cc1` (configuration not stated) were 0.8, 6.8 µM, 73 µM and 5 µM.
Regarding `CC(C)(C)C1CNCCNCCNCCN1` (configuration not stated), in data set [2], the logP is -0.1. Besides, the results for the EC50 in data set [3], in data set [4] and in data set [1] were 133 µM, greater than 200 µM and greater than 100 µM, respectively.
Molecule `c1ccc2c(c1)ccc1cc(C3CNCCNCCNCCN3)ccc12` (configuration not stated) registered a log partition coefficient (logP) in data set [2] of 2.2. Also, the 50% effective concentration (EC50) in data set [1] was less than 1.5 µM.
With `N=C(N)c1ccc(OCCCCCOc2ccc(C(=N)N)cc2)cc1` [PENTAMIDINE], the EC50 in data set [3] was 0.006 µM.
Turning to `Clc1ccc(C2CNCCNCCNCCN2)cc1` (configuration not stated), in data set [2], the logP was 0.8. Also, the EC50 was found to be 2.8 µM in data set [3], 181 µM in data set [4] and 2.3 µM in data set [1].
Turning to `FC(F)(F)c1cc(C2CNCCNCCNCCN2)cc(C(F)(F)F)c1` (configuration not stated), the logP in data set [2] was 1.7. For the same molecule, the values for the EC50 in data set [3], in data set [4] and in data set [1] were 6.8 µM, 61 µM and 4.8 µM, respectively.
The corresponding values for `c1ccc(C2CNCCNCCNCCN2)cc1` (configuration not stated) are -0.2, greater than 200 µM, greater than 200 µM and 26 µM.
